# Values of other authors as cited in patent publication US8858953B2, “Herbal composition for treating cancer” (priority 2011, dated 2014).
# Tested on: Epidermal Growth Factor Receptor (EGFR) mutation lung cancer
# Settings: lung cancer patients with EGFR mutation
structure (smiles),measurement,value
C#Cc1cccc(Nc2ncnc3cc(OCCOC)c(OCCOC)cc23)c1 [Erlotinib],progression free survival,up to 9 months
